From ChEMBL document CHEMBL6177963, “Development of acylhydrazone linked thiazoles as non-covalent dual inhibitors of SARS-CoV-2 proteases” (Eur J Med Chem, 2025)
Activity calls are given as the source filed them. No cut-off for these calls is given here.

Columns and labels:
[1] = biological target: Replicase polyprotein 1ab (Severe acute respiratory syndrome coronavirus 2, UniProt P0DTD1); assay: Inhibition of recombinant SARS-CoV-2 PLpro using TLKGGI-AMC as substrate assessed as assessed as inhibition constant ny measuring fluorescence signal measured after 15 mins
SARS-CoV-2 [2] = assay: Anti-viral activity against SARS-CoV-2 BavPat1 infected in Vero E6 cells assessed as inhibition of viral RNA replication; assay type: functional, organism-based; settings: Severe acute respiratory syndrome coronavirus 2, BavPat1, Vero C1008
[3] = biological target: Replicase polyprotein 1ab (Severe acute respiratory syndrome coronavirus 2) (UniProt P0DTD1); assay: Inhibition of recombinant SARS-CoV-2 PLpro using TLKGGI-AMC as substrate assessed as assessed as inhibition constant ny measuring fluorescence signal at 10 uM measured after 15 mins relative to control
[4] = biological target: Replicase polyprotein 1ab (Severe acute respiratory syndrome coronavirus 2) (UniProt P0DTD1); assay: Binding affinity to SARS-CoV-2 PLpro assessed as thermal stability by measuring melting temperature of half of the proteins unfolded by differential scanning fluorimetry (DSF) (reference value: 45.79 degC)
[5] = biological target: Replicase polyprotein 1ab (Severe acute respiratory syndrome coronavirus 2) (UniProt P0DTD1); assay: Non-covalent inhibition of SARS-CoV-2 PLpro by Lineweaver-Burk Plot analysis
SARS-CoV-2 [6] = assay: Antiviral activity against SARS-CoV-2 infected in African green monkey Vero E6 cells assessed as viral load reduction at 0.125 uM by measuring viral RNA measured up to 72 hrs by RT-PCR analysis relative to control; assay type: functional, Severe acute respiratory syndrome coronavirus 2, Vero C1008; design: scale not given: the % may be the effect or the level left
SARS-CoV-2 [7] = assay: Antiviral activity against SARS-CoV-2 infected in African green monkey Vero E6 cells assessed as viral load reduction at 4 uM by measuring viral RNA measured up to 72 hrs by RT-PCR analysis relative to control; assay type: functional, Severe acute respiratory syndrome coronavirus 2, Vero C1008; design: scale not given: the % may be the effect or the level left
[8] = tested on: Severe acute respiratory syndrome coronavirus 2; assay: Binding affinity to SARS-CoV-2 MPro assessed as thermal stability by measuring melting temperature of half of the proteins unfolded by differential scanning fluorimetry (DSF) (reference value: 52.46 degC)
[9] = Cytotoxicity against human HEK293 cells assessed as cell viability measured after 48 hrs by MTT assay; assay type: toxicity, cell-based
SARS-CoV-2 [10] = assay: Antiviral activity against SARS-CoV-2 infected in African green monkey Vero E6 cells assessed as viral reduction by measuring viral RNA measured up to 72 hrs by RT-PCR analysis; assay type: functional, organism-based; settings: Severe acute respiratory syndrome coronavirus 2, SARS-CoV-2, Vero C1008, 72 h
[11] = biological target: Chymotrypsin (Homo sapiens) (UniProt Q99895+P17538+P40313+Q6GPI1); assay: Inhibition of Chymotrypsin (unknown origin) assessed as BSA digestion; assay type: protein assay
[12] = Cytotoxicity against African green monkey Vero E6 cells assessed as cell viability at 100 uM measured after 48 hrs by MTT assay relative to control; assay type: toxicity, cell-based, Vero C1008; settings: chlorocebus sabaeus, read-out: Activity
[13] = tested on: Severe acute respiratory syndrome coronavirus 2; assay: Non-covalent inhibition of SARS-CoV-2 MPro by Lineweaver-Burk Plot analysis
SARS-CoV-2 [14] = assay: Anti-viral activity against SARS-CoV-2 Calu-3 by direct yield reduction assay (DYRA); assay type: functional, organism-based; settings: Severe acute respiratory syndrome coronavirus 2, Calu-3, Calu-3
[15] = tested on: Severe acute respiratory syndrome coronavirus 2; assay: Covalent binding affinity to SARS-CoV-2 MPro assessed as change in molecular weight by Mass spectrometry
[16] = tested on: Severe acute respiratory syndrome coronavirus 2; assay: Non-covalent binding affinity to SARS-CoV-2 MPro assessed change in molecular weight by Mass spectrometry
[17] = Acute toxicity in rat assessed as toxicity at 175 to 2000 mg/kg, po measured for 14 days; assay type: organism-based; settings: in vivo, dose 175-2000 mg/kg, time 14 day
[18] = Acute toxicity in rat assessed as morphological changes in liver in portal, periportal, and centrilobular regions at 175 to 2000 mg/kg, po measured for 14 days by Hand E staining based analysis; assay type: organism-based; settings: in vivo, 336 h, dose 175-2000 mg/kg, time 14 day
[19] = biological target: Replicase polyprotein 1ab (Severe acute respiratory syndrome coronavirus 2) (UniProt P0DTD1); assay: Covalent binding affinity to SARS-CoV-2 PLpro assessed as change in molecular weight by Mass spectrometry
[20] = Acute toxicity in rat assessed as change in body weight at 175 to 2000 mg/kg, po measured for 14 days; assay type: organism-based; settings: in vivo, 336 h, dose 175-2000 mg/kg, time 14 day
[21] = biological target: Replicase polyprotein 1ab (Severe acute respiratory syndrome coronavirus 2) (UniProt P0DTD1); assay: Non-covalent binding affinity to SARS-CoV-2 PLpro assessed change in molecular weight by Mass spectrometry
[22] = biological target: Replicase polyprotein 1ab (Severe acute respiratory syndrome coronavirus 2) (UniProt P0DTD1); assay: Reversible inhibition of SARS-CoV-2 PLpro assessed as enzyme activity by dialysis; design: scale not given: the % may be the effect or the level left
[23] = tested on: Severe acute respiratory syndrome coronavirus 2; assay: Reversible inhibition of SARS-CoV-2 MPro assessed as enzyme activity by dialysis; design: scale not given: the % may be the effect or the level left

SMILES: O=C(NNc1ncc(-c2ccc(Cl)cc2)s1)c1cccc(Cl)c1
- Ki ([1]; read-out: Ki): 4230 nM

SMILES: CN(/N=C/c1ccccc1C(=O)O)c1ncc(-c2ccccc2Cl)s1
- EC50 (SARS-CoV-2 [2]): 14 nM

SMILES: O=C(NNc1nc(-c2ccc(Cl)cc2)cs1)c1ccc(Br)cc1
- Ki [1]: Not_active
- inhibition [3]: < 50%

SMILES: CCOC(=O)c1sc(NNC(=O)c2ccc(Cl)cc2)nc1C
- Ki [1]: Not_active
- Tm [4]: 44.7 °C
- Activity [5]: Active
- Activity (SARS-CoV-2 [6]): >70%
- Activity (SARS-CoV-2 [7]): >80%
- Tm [8]: 52.1 °C
- IC50 at 48 h [9]: 45500 nM
- EC50 (SARS-CoV-2 [10]): 72 nM
- inhibition [11]: inactive
- viability at 48 h, 100 µM [12]: 92.5%

SMILES: CCOC(=O)c1sc(N/N=C/c2cc3ccccc3nc2Cl)nc1C
- Ki [1]: Not_active

SMILES: O=C(NNc1nc(-c2ccc(Br)cc2)cs1)c1ccc(F)cc1
- Ki ([1]; read-out: Ki): 150 nM
- Tm [4]: 45.9 °C
- Activity [5]: Active
- Tm [8]: 51.1 °C
- IC50 at 48 h [9]: 10500 nM
- Activity [13]: Active
- inhibition [11]: inactive
- viability at 48 h, 100 µM [12]: 91.8%

SMILES: CCOC(=O)c1sc(NNC(=O)c2cccs2)nc1C
- Ki ([1]; read-out: Ki): 230 nM
- Tm [4]: 41.1 °C
- Activity [5]: Active
- Activity (SARS-CoV-2 [7]): >70%
- Tm [8]: 49.8 °C
- IC50 at 48 h [9]: 45800 nM
- EC50 (SARS-CoV-2 [10]): 118 nM
- Activity [13]: Active
- inhibition [11]: inactive
- viability at 48 h, 100 µM [12]: 87.9%

SMILES: O=C(NNc1nc(-c2ccc(Br)cc2)cs1)c1ccccc1
- Ki [1]: Not_active
- inhibition [3]: < 50%

SMILES: O=C(NNc1ncc(-c2ccc(Cl)cc2)s1)c1ccc2ccccc2c1
- Ki ([1]; read-out: Ki): 2130 nM

SMILES: CCOC(=O)c1sc(NNC(=O)c2ccc3ccccc3c2)nc1C
- Ki ([1]; read-out: Ki): 660 nM

SMILES: Cc1nc(NC(=O)C(C)(C)C)sc1-c1cnc(N(CC(C)(C)O)C2CCCCC2)s1
- IC50 (SARS-CoV-2 [14]): 1570 nM

SMILES: CC(=O)Oc1ccccc1C(=O)Nc1ncc([N+](=O)[O-])s1 [NITAZOXANIDE]
- EC50 (SARS-CoV-2 [2]): 7480 nM

SMILES: Cc1ccc(-c2csc(NNC(=O)c3ccc(Cl)cc3)n2)cc1
- Ki [1]: Not_active
- inhibition [3]: < 50%

SMILES: O=c1c2ccccc2[se]n1-c1ccccc1 [EBSELEN]
- Tm [4]: 45.4 °C
- Activity [15]: Active
- Tm [8]: 52.4 °C
- Activity [16]: inactive
- inhibition [11]: inactive

SMILES: CCOC(=O)c1sc(NNC(=O)c2cccc(Cl)c2)nc1C
- Ki [1]: Not_active
- inhibition [3]: < 50%

SMILES: CCOC(=O)c1sc(NNC(=O)/C=C/c2ccccc2)nc1C
- Ki ([1]; read-out: Ki): 200 nM
- Tm [4]: 41.5 °C
- LD50 at 336 h [17]: > 2000 mg/kg
- Activity [18]: Non-toxic
- Activity [5]: Active
- Activity (SARS-CoV-2 [6]; Severe acute respiratory syndrome coronavirus 2, Vero C1008): inactive
- Activity (SARS-CoV-2 [7]): 56%
- Activity [19]: inactive
- Tm [8]: 49.9 °C
- Activity [20]: Non-toxic
- IC50 at 48 h [9]: 180000 nM
- EC50 (SARS-CoV-2 [10]): 848 nM
- Activity [13]: Active
- inhibition [11]: inactive
- Activity [21]: Active
- Activity [22]: > 90%
- viability at 48 h, 100 µM [12]: 87.5%
- Activity [23]: > 90%

SMILES: CCOC(=O)c1sc(NNC(=O)c2ccco2)nc1C
- Ki [1]: Not_active
- inhibition [3]: < 50%

SMILES: O=C(O)c1ccccc1/C=N/Nc1ncc(-c2ccccc2Cl)s1
- EC50 (SARS-CoV-2 [2]): 1590 nM

SMILES: CCOC(=O)c1sc(NNC(=O)c2ccccc2OC)nc1C
- Ki [1]: Not_active

SMILES: Cc1ccc(-c2csc(NNC(=O)c3ccc(Br)cc3)n2)cc1
- Ki [1]: Not_active
- inhibition [3]: < 50%

SMILES: CCOC(=O)c1sc(NNC(=O)c2ccccc2C)nc1C
- Ki [1]: Not_active
- inhibition [3]: < 50%
